Reference: patent US20020127605A1 (priority 2000, published 2002)

Legend:
[1] = test system: Sprague-Dawley rat lumbar spinal cord slices; assay: Neuroprotection assay in spinal cord slice preparations (THA-induced cell death); type: cell-based; settings: THA 200 μM + compound 10 μM
Experimental: Neuroprotection Assay in Spinal Cord Slice Preparations: All cultures were derived from postnatal day 8 (P8) Sprague-Dawley rat lumbar spinal cord slices of 325 micron thickness, prepared using a commercially available Mcllwain tissue chopper. Each experiment consisted of two 6-well plates with 5 slices from 4 different animals per well. Media changes were performed every 3 to 4 days. Cultures were treated with THA [L(−)-threo-3-hydroxyaspartic acid; Tocris Cookson Inc., Ballwin, Mo.] at 200 μM+compound (10 μM) after one week in culture. The control was an untreated sample with 0.1% DMSO as vehicle. The THA control was a THA treated sample with 0.1% DMSO as vehicle. Two wells were used per condition. One media change with new THA and compounds was performed. […] Quantification of surviving neurons was performed on a Zeiss Axiovert microscope. Neuronal survival was determined by observing an intact neuronal cell body with processes located ventrally of the central canal in each hemisphere. […] Each hemisphere was counted individually. The statistics were performed with StatView™ software on a minimum of three different experiments per condition and significance was determined as compared to THA control. The percent of protection was determined from the average number of living neurons by the following equation: (drug treatment condition−THA control)/(Untreated control−THA control). […]

[2] = biological target: human recombinant CyPA (Homo sapiens, UniProt P62937); assay: Rotamase inhibition, chymotrypsin-coupled cuvette assay (asterisked values); type: biochemical
human recombinant CyPA, sequence (P62937 whole entry): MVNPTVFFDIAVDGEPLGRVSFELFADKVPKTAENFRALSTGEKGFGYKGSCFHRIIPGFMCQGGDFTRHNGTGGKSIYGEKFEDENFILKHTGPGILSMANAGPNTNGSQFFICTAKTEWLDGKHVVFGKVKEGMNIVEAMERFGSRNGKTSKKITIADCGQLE
Text: (§1) A number of substrates for rotamase are known in the art or can be derived from those known. Typically, the substrate contacts a sample containing a protein with rotamase activity and the conversion of the substrate is detected after a period of time. The method for detecting conversion of the substrate will vary with the particular substrate chosen. One method has been termed the Ki test (See Harding, et al., Nature, 341:758-760 (1989). The cis-trans isomerization of an alanine-proline bond in a model substrate, N-succinyl-Ala-Ala-Pro-Phe-p-nitroanilide, is monitored spectrophotometrically in a chymotrypsin-coupled assay. The action of chymotrypsin releases p-nitroaniline from only the trans form of the substrate. The amount of p-nitroaniline can be monitored in a spectrophotometer, for example. Other methods of detecting the presence of p-nitroaniline can also be used. The inhibition of this reaction caused by different concentrations of inhibitor is determined and the data are analyzed as a change in first-order rate constant as a function of inhibitor concentration, which yields the Ki value.
(§2) The following were added to a plastic cuvette: […] of ice cold assay buffer (25 mM HEPES, pH 7.8, 100 mM NaCl), 10 μL of CyP A (2.5 μM in 10 mM Tris-Cl pH 7.5, 100 mM NaCl, 1 mM dithiothreitol), 25 μL of chymotrypsin (50 mg/ml in 1 mM HCl), and 10 μL of test compound, at various concentrations, in dimethyl sulfoxide. The reaction was initiated by the addition of 5 μL of substrate (succinyl-Ala-Phe-Pro-Phe-para-nitroanilide, 5 mg/mL in 470 mM LiCl in trifluoroethanol). The absorbance at 390 nm versus time was monitored for 90 seconds using a spectrophotometer and the rate constants were determined from the absorbance versus time data files.
(§3) The IC50 values that were obtained for representative compounds in the following Table I refer to the concentration that inhibits 50% of the rotamase activity in a sample. […] The Cyclophilin utilized was a recombinant rat CyPA-GST fusion protein: CypA was amplified from rat brain cDNA using standard PCR methods, primed with the following sequences: 5′ CCCCCCGGGAGTCAACCCCACCGTGTTCTTCGA 3′ and 5′ GGAGATCTAGAGTTGTCCACAGTCGGAGATGGT 3′. The resulting fragment (573 base pairs) was cloned into pCRII and amplified. The CyP sequence was cut out with Smal and EcoRl and cloned into the Smal/EcoRl sites in pGEX2TK (Pharmacia). This plasmid was transformed into BL21 E. coli cells for expression of the GST-CyPA fusion protein.

[3] = biological target: T1, recombinant rat CyPA-GST fusion protein (Rattus norvegicus, UniProt P10111); assay: Rotamase (prolyl peptidyl cis-trans isomerase) inhibition, chymotrypsin-coupled cuvette assay; type: biochemical
T1 construct: made in house; host or cells: E. coli BL21
T1 sequence (P10111 2-164): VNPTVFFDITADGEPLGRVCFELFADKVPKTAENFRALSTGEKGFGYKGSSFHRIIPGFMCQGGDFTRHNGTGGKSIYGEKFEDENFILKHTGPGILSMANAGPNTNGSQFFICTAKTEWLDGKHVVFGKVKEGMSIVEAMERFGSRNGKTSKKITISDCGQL
Text: as §1, §2, §3

[4] = test system: striatal tyrosine hydroxylase-immunoreactive fibres; assay: MPTP-lesioned mouse model of Parkinson's disease, striatal TH fiber density; type: in vivo; settings: 10 mg/kg s.c. in Intralipid once daily days 1-5, one hour prior to MPTP; analysis day seven
Text: MPTP (N-methyl-4-phenyl-1,2,3,6-tetrahydropyridine) is a systemically available neurotoxin specific to nigrostriatal dopaminergic neurons, i.e. to the cells that degenerate in human Parkinson's disease. Administration of MPTP to mice leads to a selective partial destruction of the mesotelencephalic dopaminergic projection, and to a loss of dopamine and dopaminergic fibres in the corpus striatum, which is the main forebrain target of midbrain dopaminergic neurons.
Young adult male CD1 albino mice (Harlan—Sprague Dawley; 22-25 g) were dosed i.p. with the dopamine cell-specific neurotoxin N-methyl-4-phenyl-1,2,3,6-tetrahydropyridine (MPTP hydrochloride, calculated as 34 mg/kg free base), dissolved in saline at a concentration of 3.4 mg/ml free base once daily on days one to five. […]
Blinded analysis of TH fiber density in the central striatum was performed at 630× magnification. […] The percentage of sample field covered by TH positive processes and terminals was calculated using an image analysis program (“Simple,” Compix Inc., Pittsburgh, Pa.). The mean striatal innervation density was calculated for each group. The magnitude of striatal deafferentation due to the MPTP lesion was assessed by dividing the observed striatal innervation values obtained in MPTP/vehicle treated cases by the mean striatal innervation density in the Vehicle/Vehicle group and expressed as % loss. […]

O=C(Nc1cc(Cl)cc(Cl)c1)N[C@H]1CCCC[C@H]1NC(=O)Nc1cc(Cl)cc(Cl)c1 [Compound 15a]
protection from THA-induced cell death [1]: complete protection | SMI-32 immunoreactive neurons per ventral hemisphere ([1]; untreated control 26.4±4.2, THA control 15.97±2.04, mean±standard error): 26.5±2.7 cells/ventral hemisphere | IC50 [2]: 521 nM | IC50 [3]: 610 nM | protection of striatal tyrosine hydroxylase-immunoreactive fibres [4]: 72.4%
